For orientation: IC50 means the concentration needed to halve the response being measured.

Structures are written as SMILES.

Experimental findings from patent publication US11044909B2, “Composition for destruction of microalgae or sphaerocarpus” (CUREARTH, INC., priority 2015, dated 2021) are described below.

One series concerns Danio rerio. In words: Acute toxicity test on Danio rerio. Conditions: 15 μM, 2 weeks; FIG. 5. Type of series: in vivo. As to the method:
An acute toxicity test on Danio rerio (zebrafish) was performed using compounds 33 and 35 synthesized in Examples 33 and 35. In particular, 2-cm-sized Danio rerio, which had been 3 months since hatching, was acclimatized for 14 days before the start of the experiment. The Danio rerio were feed twice a day during the acclimation period. Next, solutions of Compounds 33 and […] were prepared at concentrations of 0, 5, 10, 15, 20, 25, and 30 μM. Culture solutions of the Danio rerio (10 L, initial population number: 10 zebrafish in total (1 zebrafish/L)) were treated for 2 weeks with the solutions of Compounds 33 and 35 at different concentrations to thereby perform the acute toxicity test.

The subject of series [1] is Cochlodinium Polykrikoides. In words: Microalgae-destroying effect by IC50 measurement (cell count). Type of series: cell-based. The following applies: Margalefidinium polykrikoides, 24 h; Table 1, 3,4-dichlorobenzylamines; 0.1-5 uM, cultured 1 day; read-out: IC50 Cochlodinium Polykrikoides. The method, then: (§1) The IC50 value was obtained according to Equation 1:
(§2) The algicidal activity of each compound was calculated using Equation 2: Algicidal activity (%)=(1−Tt/Ct)×100 <Equation 2>
(§3) In Equation 2, T (treatment group) and C (control group) represent algae densities in cell counts when each compound was inoculated and was not inoculated, respectively, and t represents the number of days which had passed after the inoculation.
(§4) First, the above-listed microalgae were cultured in a culture flask at a temperature of about 20° C. under light conditions, and a medium used was Guillard's f/2 medium which is commonly used in the art (Guillard R R L and Keller M D. Culturing dinoflagellates. In: Spector (Ed.), Dinoflagellates. New York: Academic Press; 1984, 391442).
(§5) After the cultured microalgae were transferred onto a 24-well plate, Chattonella Marina, Heterosigma circularisquama, Cochlodinium Polykrikoides, and Heterosigma akashiwo, which were in an exponential growth phase, were treated with Compounds 1 to 3, 5 to 10, 12, 13, 17 to 43, and 45 to 47 synthesized in Examples 1 to 3, 5 to 10, 12, 13, 17 to 43, and 45 to 47 at concentrations of 0.1 uM, 0.2 uM, 0.5 uM, 1 uM, 2 uM, and 5 uM, and then cultured for 1 day.
(§6) Control groups were not treated with any of the compounds synthesized in the above-identified examples. After incubation, the number of cells of each alga was counted using a Burker-Tukr hemocytometer, and IC50 values were calculated according to Equation 1 using SigmaPlot Version 11.2 software (Standard curve: the four-parameter logistic curve).

The next series has as its system Chattonella Marina. The series is described as above. Type of series: cell-based. The following applies: 24 h, Table 1, 3,4-dichlorobenzylamines, 0.1-5 uM, cultured 1 day, read-out: IC50 Chattonella Marina. As to the method: (§7) The IC50 value was obtained according to Equation 1: […]
as §4, §5, §6

The subject of series [2] is Heterocapsa Circularisquama. The description is as above. Type of series: cell-based. The following applies: 24 h, Table 1, 3,4-dichlorobenzylamines, 0.1-5 uM, cultured 1 day, read-out: IC50 Heterocapsa Circularisquama. The method, then: as §7, §4, §5, §6
The test system of a further series is Heterosigma Akashiwo. The series is described as above. Type of series: cell-based. The following applies: 24 h, Table 1, 3,4-dichlorobenzylamines, 0.1-5 uM, cultured 1 day, read-out: IC50 Heterosigma Akashiwo. As to the method: as §7, §4, §5, §6
The next series relates to Daphnia magna. In words: Acute toxicity test on Daphnia magna. Type of series: in vivo. The following applies: 5 μM, 2 days; FIG. 4. The method, then: An acute toxicity test was performed on Daphnia magna (water flea) using Compounds 33 and 35 synthesized in Examples 33 and 35. In particular, culture solutions of Daphnia magna (200 mL, 30 animals) in DMSO and M4 medium were treated with solutions of Compounds 33 and 35 at 5 μM, 10 μM, and 15 μM for 2 days.

Series [3] concerns Microcystis aeruginosa. In words: Microalgae-destroying effect by IC50 measurement (cell count). Type of series: cell-based. The following applies: Microcystis aeruginosa, 120 h; Table 1, 3,4-dichlorobenzylamines; 0.1-20 uM, cultured 5 days; read-out: IC50 Microcystis aeruginosa. As to the method:
as §1, §2, §3, §4
Microcystis aeruginosa was treated with Compounds 1 to 3, 5 to 10, 12, 13, 17 to 43, and 45 to 51 synthesized in Examples 1 to 3, 5 to 10, 12, 13, 17 to 43, and 45 to 51 at concentrations of 0.1 uM, 0.2 uM, 0.5 uM, 1 uM, 2 uM, 5 uM, 10 uM, 15 uM, and 20 uM and then cultured for 5 days.
as §6

Series [4] has as its system Microcystis aeruginosa. In words: Microalgae-destroying effect of Compound 2, viable cell counts. The series is classed as cell-based. Conditions: 0.5 μM, 1 μM, and 2 μM, observed for 2 days; FIG. 3. As to the method: To investigate a microalgae-destroying effect of Compound 2 synthesized in Example 2, culture solutions of Microcystis aeruginosa (40 mL; initial population number: 100×10^4/mL) in DMSO and BG11 medium were each treated with solutions of Compound 2 at 0.5 μM, 1 μM, and 2 μM and observed for 2 days. A culture solution of the microalgae not treated with a solution of Compound 2 was used as a control group.

As for `Clc1ccc(CNC2CCCC2)cc1Cl` [Compound 33, Cyclopentyl-(3,4-dichloro-benzyl)-amine], the survival ratio in the series on Danio rerio is recorded as 100%; in the series on Daphnia magna, “about 100%”. Besides, the IC50 was found to be 360 nM in series [1]; 320 nM in the series with Chattonella Marina; 1040 nM in series [2]; 243 nM with Heterosigma Akashiwo; 19500 nM in the series on Microcystis aeruginosa [3].
On to `CCN(CC)CCCNCc1ccc(Cl)c(Cl)c1` [Compound 2, N′-(3,4-Dichloro-benzyl)-N,N-diethyl-propane-1,3-diamine], for which the IC50 turned out to be 327 nM in series [1]; 2600 nM in the series on Chattonella Marina; 3400 nM in series [2]; 1300 nM in the series with Heterosigma Akashiwo; 570 nM in the series on Microcystis aeruginosa [3]. For the same compound, the “viable cell counts of Microcystis with respect to time” value with Microcystis aeruginosa [4] is given as “high algicidal effect”.
